Series [1] has as its target T1, Integrin alpha-V/beta-3 (Homo sapiens, UniProt P05106+P06756). The series can be described thus: Inhibition of integrin alphavbeta3 (unknown origin)-mediated K562 cell adhesion to LAPb1 coated surface by fluorescence analysis. Type of series: cell-based.
Series [2] relates to K562. The series can be described thus: Selectivity ratio of IC50 for integrin alphavbeta6 (unknown origin)-mediated K562 cell adhesion to LAPb1 coated surface to IC50 for integrin alphavbeta5 (unknown origin)-mediated K562 cell adhesion to vitronectin coated surface. Format: cell-based. As to conditions: Homo sapiens.
The next series addresses Integrin alpha-V/beta-8 (Homo sapiens, UniProt P06756+P26012). Kind of series: Inhibition of integrin alphavbeta8 (unknown origin)-mediated K562 cell adhesion to LAPb1 coated surface by fluorescence analysis. Type of series: cell-based.
The subject of series [3] is K562. Kind of series: Selectivity ratio of IC50 for integrin alphavbeta6 (unknown origin)-mediated K562 cell adhesion to LAPb1 coated surface to IC50 for integrin alphavbeta3 (unknown origin)-mediated K562 cell adhesion to LAPb1 coated surface. Format: cell-based. As to conditions: Homo sapiens.
Series [4] is described as follows: Lipophilicity, log D of the compound by HPLC chromatographic method. Format: physicochemical.
For a further series, the target named is Integrin alpha-V/beta-5 (Homo sapiens, UniProt P06756+P18084). Kind of series: Inhibition of integrin alphavbeta5 (unknown origin)-mediated K562 cell adhesion to vitronectin coated surface by fluorescence analysis. Type of series: cell-based.
Series [5] concerns K562. Kind of series: Selectivity ratio of IC50 for integrin alphavbeta8 (unknown origin)-mediated K562 cell adhesion to LAPb1 coated surface to IC50 for integrin alphavbeta3 (unknown origin)-mediated K562 cell adhesion to LAPb1 coated surface. Format: cell-based. Particulars: Homo sapiens.
The target of series [6] is T2, Integrin alpha-V/beta-6 (Homo sapiens, UniProt P06756+P18564). The series can be described thus: Inhibition of integrin alphavbeta6 (unknown origin)-mediated K562 cell adhesion to LAPb1 coated surface by fluorescence analysis. Format: cell-based.
The test system of series [7] is K562. Kind of series: Selectivity ratio of IC50 for integrin alphavbeta8 (unknown origin)-mediated K562 cell adhesion to LAPb1 coated surface to IC50 for integrin alphavbeta5 (unknown origin)-mediated K562 cell adhesion to vitronectin coated surface. Type of series: cell-based. Particulars: Homo sapiens.
Series [8] has as its target T1, Integrin alpha-V/beta-3. The series can be described thus: Inhibition of integrin alphavbeta3 (unknown origin) by Merck binding assay. Format: protein-complex assay.
The target of series [9] is T2, Integrin alpha-V/beta-6. Kind of series: Inhibition of integrin alphavbeta6 (unknown origin) by Merck AG cell assay. Type of series: cell-based.

Results on 12 molecules are retold here after ChEMBL document CHEMBL3351497, “Structure Activity Relationships of αv Integrin Antagonists for Pulmonary Fibrosis by Variation in Aryl Substituents” (ACS Med Chem Lett, 2014).

T1 sequence (P05106 27-788 limits assumed): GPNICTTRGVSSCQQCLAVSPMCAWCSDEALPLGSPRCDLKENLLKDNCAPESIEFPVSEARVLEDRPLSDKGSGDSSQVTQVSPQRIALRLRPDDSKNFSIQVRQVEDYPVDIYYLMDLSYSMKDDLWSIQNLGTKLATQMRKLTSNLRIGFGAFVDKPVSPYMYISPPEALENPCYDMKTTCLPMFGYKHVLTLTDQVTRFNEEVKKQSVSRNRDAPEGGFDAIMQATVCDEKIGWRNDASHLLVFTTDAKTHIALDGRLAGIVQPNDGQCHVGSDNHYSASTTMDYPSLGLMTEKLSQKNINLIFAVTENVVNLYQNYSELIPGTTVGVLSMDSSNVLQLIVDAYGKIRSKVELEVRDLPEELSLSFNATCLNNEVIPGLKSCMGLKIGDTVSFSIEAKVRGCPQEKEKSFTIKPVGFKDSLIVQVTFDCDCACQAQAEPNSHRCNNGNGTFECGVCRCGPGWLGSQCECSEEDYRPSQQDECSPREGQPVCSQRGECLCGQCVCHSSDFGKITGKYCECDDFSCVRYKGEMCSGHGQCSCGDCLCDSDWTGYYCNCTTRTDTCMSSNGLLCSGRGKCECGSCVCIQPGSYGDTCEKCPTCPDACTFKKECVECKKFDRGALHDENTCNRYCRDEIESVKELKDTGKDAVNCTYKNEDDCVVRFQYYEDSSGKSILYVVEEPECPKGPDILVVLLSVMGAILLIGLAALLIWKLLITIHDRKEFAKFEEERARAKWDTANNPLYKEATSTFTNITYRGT
T1 sequence (P06756 31-889 limits assumed): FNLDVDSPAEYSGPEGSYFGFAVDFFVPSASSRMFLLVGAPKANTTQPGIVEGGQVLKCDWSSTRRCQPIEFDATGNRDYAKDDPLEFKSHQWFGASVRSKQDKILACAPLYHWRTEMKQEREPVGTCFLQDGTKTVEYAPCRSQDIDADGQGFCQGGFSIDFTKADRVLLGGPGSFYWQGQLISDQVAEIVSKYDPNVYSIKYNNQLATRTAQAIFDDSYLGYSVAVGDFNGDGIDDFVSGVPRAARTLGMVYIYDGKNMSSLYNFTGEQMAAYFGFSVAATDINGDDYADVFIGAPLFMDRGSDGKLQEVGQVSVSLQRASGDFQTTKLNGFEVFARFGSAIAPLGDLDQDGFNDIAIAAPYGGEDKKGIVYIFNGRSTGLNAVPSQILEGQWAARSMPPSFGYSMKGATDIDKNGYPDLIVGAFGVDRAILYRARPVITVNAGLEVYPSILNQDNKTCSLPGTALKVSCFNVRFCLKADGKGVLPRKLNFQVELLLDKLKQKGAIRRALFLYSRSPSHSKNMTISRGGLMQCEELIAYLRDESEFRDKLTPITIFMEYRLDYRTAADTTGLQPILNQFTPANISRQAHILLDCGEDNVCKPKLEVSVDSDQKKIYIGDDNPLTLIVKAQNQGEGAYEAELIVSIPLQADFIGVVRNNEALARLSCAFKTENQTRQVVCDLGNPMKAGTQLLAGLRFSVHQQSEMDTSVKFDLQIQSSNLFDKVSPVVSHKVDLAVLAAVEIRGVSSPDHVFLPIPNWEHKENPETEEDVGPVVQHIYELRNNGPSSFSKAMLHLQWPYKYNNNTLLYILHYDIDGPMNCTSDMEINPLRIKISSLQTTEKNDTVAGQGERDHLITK
T1 sequence (P06756 891-1048 limits assumed): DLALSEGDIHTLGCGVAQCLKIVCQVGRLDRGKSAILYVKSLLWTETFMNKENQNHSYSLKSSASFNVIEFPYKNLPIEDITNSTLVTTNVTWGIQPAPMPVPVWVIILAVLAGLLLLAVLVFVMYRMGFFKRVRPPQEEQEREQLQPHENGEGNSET
Sequence of Integrin alpha-V/beta-8 (P06756 31-889 limits assumed): as the sequence (P06756 31-889 limits assumed) above
Sequence of Integrin alpha-V/beta-8 (P06756 891-1048 limits assumed): as the sequence (P06756 891-1048 limits assumed) above
Sequence of Integrin alpha-V/beta-8 (P26012 43-769 limits assumed): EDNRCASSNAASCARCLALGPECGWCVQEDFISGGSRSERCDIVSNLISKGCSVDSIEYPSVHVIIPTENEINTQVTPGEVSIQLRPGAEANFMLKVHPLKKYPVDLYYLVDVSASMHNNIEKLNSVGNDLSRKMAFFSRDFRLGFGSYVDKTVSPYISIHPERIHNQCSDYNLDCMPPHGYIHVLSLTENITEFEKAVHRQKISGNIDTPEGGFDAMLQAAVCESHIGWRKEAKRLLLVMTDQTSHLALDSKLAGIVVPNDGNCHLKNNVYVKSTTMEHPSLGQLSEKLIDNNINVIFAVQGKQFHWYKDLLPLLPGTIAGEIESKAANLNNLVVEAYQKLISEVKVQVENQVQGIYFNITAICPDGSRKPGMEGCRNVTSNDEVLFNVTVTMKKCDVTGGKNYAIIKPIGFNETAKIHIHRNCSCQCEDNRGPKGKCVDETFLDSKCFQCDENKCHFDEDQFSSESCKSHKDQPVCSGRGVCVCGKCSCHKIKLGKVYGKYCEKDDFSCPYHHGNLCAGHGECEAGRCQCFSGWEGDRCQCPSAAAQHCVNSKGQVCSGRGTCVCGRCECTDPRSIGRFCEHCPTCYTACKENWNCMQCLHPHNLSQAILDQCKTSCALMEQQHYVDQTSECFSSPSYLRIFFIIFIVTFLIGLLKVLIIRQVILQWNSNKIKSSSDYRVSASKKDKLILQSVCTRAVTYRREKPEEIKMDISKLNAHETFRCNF
T2 sequence (P06756 31-889 limits assumed): as the sequence (P06756 31-889 limits assumed) above
T2 sequence (P06756 891-1048 limits assumed): as the sequence (P06756 891-1048 limits assumed) above
T2 sequence (P18564 22-788 limits assumed): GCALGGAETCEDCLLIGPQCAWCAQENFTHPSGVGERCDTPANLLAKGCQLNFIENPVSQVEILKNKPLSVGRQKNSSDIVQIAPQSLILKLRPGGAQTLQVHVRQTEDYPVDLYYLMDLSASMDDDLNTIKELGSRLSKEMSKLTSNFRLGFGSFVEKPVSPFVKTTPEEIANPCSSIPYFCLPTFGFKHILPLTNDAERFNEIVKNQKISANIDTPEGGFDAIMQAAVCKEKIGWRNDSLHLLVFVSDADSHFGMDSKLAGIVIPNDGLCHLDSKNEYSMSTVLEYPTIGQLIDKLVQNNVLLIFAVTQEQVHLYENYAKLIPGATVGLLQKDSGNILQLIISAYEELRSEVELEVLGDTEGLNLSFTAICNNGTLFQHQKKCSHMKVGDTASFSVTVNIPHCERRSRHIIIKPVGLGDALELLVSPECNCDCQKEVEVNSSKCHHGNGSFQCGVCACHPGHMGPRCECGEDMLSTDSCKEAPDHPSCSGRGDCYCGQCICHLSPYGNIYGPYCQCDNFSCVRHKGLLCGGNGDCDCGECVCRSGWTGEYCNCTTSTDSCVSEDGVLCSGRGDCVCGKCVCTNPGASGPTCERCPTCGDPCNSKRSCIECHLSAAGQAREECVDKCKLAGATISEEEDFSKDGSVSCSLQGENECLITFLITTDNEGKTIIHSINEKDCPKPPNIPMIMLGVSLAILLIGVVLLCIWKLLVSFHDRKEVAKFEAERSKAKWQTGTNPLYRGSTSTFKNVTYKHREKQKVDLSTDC
Sequence of Integrin alpha-V/beta-5 (P06756 31-889 limits assumed): as the sequence (P06756 31-889 limits assumed) above
Sequence of Integrin alpha-V/beta-5 (P06756 891-1048 limits assumed): as the sequence (P06756 891-1048 limits assumed) above
Sequence of Integrin alpha-V/beta-5 (P18084 24-799 limits assumed): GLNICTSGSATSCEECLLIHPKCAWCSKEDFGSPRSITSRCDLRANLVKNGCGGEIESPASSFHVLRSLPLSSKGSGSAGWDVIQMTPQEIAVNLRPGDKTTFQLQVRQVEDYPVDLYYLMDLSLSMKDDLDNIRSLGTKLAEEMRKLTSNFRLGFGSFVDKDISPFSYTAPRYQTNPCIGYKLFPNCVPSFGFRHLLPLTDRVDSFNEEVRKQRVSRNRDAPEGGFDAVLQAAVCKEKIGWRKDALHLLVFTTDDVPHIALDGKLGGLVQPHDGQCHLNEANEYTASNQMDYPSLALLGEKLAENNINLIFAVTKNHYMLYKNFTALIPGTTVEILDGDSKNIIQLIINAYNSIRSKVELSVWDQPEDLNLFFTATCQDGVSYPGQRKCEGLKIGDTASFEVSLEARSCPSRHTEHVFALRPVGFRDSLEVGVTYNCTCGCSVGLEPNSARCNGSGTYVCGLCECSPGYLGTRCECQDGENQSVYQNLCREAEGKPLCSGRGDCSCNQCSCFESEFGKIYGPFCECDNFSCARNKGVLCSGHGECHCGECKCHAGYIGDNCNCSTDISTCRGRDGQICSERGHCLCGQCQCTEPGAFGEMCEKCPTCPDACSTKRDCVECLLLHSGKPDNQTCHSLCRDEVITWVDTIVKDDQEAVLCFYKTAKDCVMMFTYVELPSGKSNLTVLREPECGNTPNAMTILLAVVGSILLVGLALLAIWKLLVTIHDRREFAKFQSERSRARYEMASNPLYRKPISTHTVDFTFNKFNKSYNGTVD

As for `COc1ccc(C(CC(=O)O)NC(=O)CCCCc2ccc3c(n2)NCCC3)cc1` (racemic), the IC50 (as a rule, the concentration that gives 50% inhibition) was 25.1 nM against Integrin alpha-V/beta-3 [1], 501 nM against Integrin alpha-V/beta-8, 50.1 nM against Integrin alpha-V/beta-5 and 501 nM against Integrin alpha-V/beta-6 [6]. Moreover, the Ratio IC50 in the series on K562 [2], with K562 [3], in the series on K562 [5] and in the series with K562 [7] was 10 each time. Moreover, in series [4], the chromatographic logD (in general, a lipophilicity value derived from retention on a column) came to 1.64.

On to `O=C(O)CC(NC(=O)CCCCc1ccc2c(n1)NCCC2)c1cccc(F)c1` (racemic), for which the IC50 on Integrin alpha-V/beta-3 [1] is 31.6 nM; against Integrin alpha-V/beta-8, 1580 nM; on Integrin alpha-V/beta-3 [8], 23 nM; at Integrin alpha-V/beta-5 it was 15.8 nM; at Integrin alpha-V/beta-6 [6] it was 794 nM. Also, the Ratio IC50 with K562 [2], with K562 [3], in the series on K562 [5] and in the series with K562 [7] was 10 in each case. Further, the chromatographic logD in series [4] is 1.92.

`O=C(O)CC(NC(=O)CCCCc1ccc2c(n1)NCCC2)c1cccc(Cl)c1` (racemic): the IC50 against Integrin alpha-V/beta-3 [1] is 79.4 nM; on Integrin alpha-V/beta-8, 501 nM; at Integrin alpha-V/beta-5, 25.1 nM; against Integrin alpha-V/beta-6 [6] it was 251 nM. This molecule also displayed a chromatographic logD in [4] of 2.3.

As for `COc1cccc(C(CC(=O)O)NC(=O)CCCCc2ccc3c(n2)NCCC3)c1` (racemic), the IC50 against Integrin alpha-V/beta-3 [1] was 39.8 nM; at Integrin alpha-V/beta-8, 501 nM; at Integrin alpha-V/beta-5 it was 63.1 nM; at Integrin alpha-V/beta-6 [6], 316 nM. Also, the Ratio IC50 in the series with K562 [2], with K562 [3], with K562 [5] and in the series with K562 [7] was 10 in each case. For the same molecule, the chromatographic logD in series [4] was determined as 1.66.

Take `O=C(O)CC(NC(=O)CCCCc1ccc2c(n1)NCCC2)c1cc(Cl)cc(Cl)c1` (racemic): the IC50 is 398 nM against Integrin alpha-V/beta-3 [1], 251 nM on Integrin alpha-V/beta-8, 200 nM at Integrin alpha-V/beta-5 and 251 nM against Integrin alpha-V/beta-6 [6]. The same molecule came in with a chromatographic logD in series [4] of 2.93.

Turning to `O=C(O)CC(NC(=O)CCCCc1ccc2c(n1)NCCC2)c1ccccc1F` (racemic), the IC50 was 316 nM against Integrin alpha-V/beta-3 [1], 3980 nM against Integrin alpha-V/beta-8, 100 nM against Integrin alpha-V/beta-5 and 1000 nM on Integrin alpha-V/beta-6 [6]. For the same molecule, the chromatographic logD in series [4] worked out at 1.88.

`O=C(O)CC(NC(=O)CCCCc1ccc2c(n1)NCCC2)c1ccccc1` (racemic): the IC50 on Integrin alpha-V/beta-3 [1] is 100 nM; against Integrin alpha-V/beta-8, 794 nM; on Integrin alpha-V/beta-5, 79.4 nM; at Integrin alpha-V/beta-6 [6], 2000 nM. Besides, the Ratio IC50 in the series with K562 [2], with K562 [3], in the series on K562 [5] and with K562 [7] was 10 in each case. In addition, in series [4], the chromatographic logD was determined as 1.56.

Turning to `Cc1cccc(C(CC(=O)O)NC(=O)CCCCc2ccc3c(n2)NCCC3)c1` (racemic), the IC50 against Integrin alpha-V/beta-3 [1] was 158 nM; on Integrin alpha-V/beta-8, 631 nM; at Integrin alpha-V/beta-5, 50.1 nM; against Integrin alpha-V/beta-6 [6], 398 nM. The molecule also gave a chromatographic logD in [4] of 1.95.

As for `O=C(O)C[C@H](NC(=O)C(COCc1ccccc1)NC(=O)CCCCNc1ccccn1)c1cc(Cl)cc(Cl)c1` (some centres undefined), the IC50 against Integrin alpha-V/beta-6 [9] was 200 nM; against Integrin alpha-V/beta-6 [6], 1000 nM.

Consider `O=C(O)CC(NC(=O)CCCCc1ccc2c(n1)NCCC2)c1ccc(Cl)c(C(F)(F)F)c1` (single isomer, unassigned; enantiomer 2), for which the IC50 was 1580 nM against Integrin alpha-V/beta-3 [1], more than 10000 nM at Integrin alpha-V/beta-8, 631 nM against Integrin alpha-V/beta-5 and more than 10000 nM on Integrin alpha-V/beta-6 [6]. Also, the logD (commonly lipophilicity at a set pH, counting ionised and neutral species) in [4] was found to be 3.25.

Consider `O=C(O)CC(NC(=O)CCCCc1ccc2c(n1)NCCC2)c1ccc(Cl)c(C(F)(F)F)c1` (racemic), for which the IC50 at Integrin alpha-V/beta-3 [1] is 316 nM; on Integrin alpha-V/beta-8, 251 nM; against Integrin alpha-V/beta-5 it was 126 nM; against Integrin alpha-V/beta-6 [6], 100 nM. In [4], this molecule had a chromatographic logD of 3.1.

As to `O=C(O)CC(NC(=O)CCCCc1ccc2c(n1)NCCC2)c1ccc2c(c1)OCO2` (racemic), the IC50 against Integrin alpha-V/beta-3 [1] is 15.8 nM; against Integrin alpha-V/beta-8, 794 nM; at Integrin alpha-V/beta-5, 12.6 nM; against Integrin alpha-V/beta-6 [6] it was 251 nM. This molecule also yielded a chromatographic logD in series [4] of 1.47.
